The results in this text go back to ChEMBL document CHEMBL3739345, “Design and synthesis of potent and selective inhibitors of BRD7 and BRD9 bromodomains” (Medchemcomm, 2015).

One experiment deals with T1, Peregrin (Homo sapiens) (UniProt P55201).
T1 sequence (whole entry): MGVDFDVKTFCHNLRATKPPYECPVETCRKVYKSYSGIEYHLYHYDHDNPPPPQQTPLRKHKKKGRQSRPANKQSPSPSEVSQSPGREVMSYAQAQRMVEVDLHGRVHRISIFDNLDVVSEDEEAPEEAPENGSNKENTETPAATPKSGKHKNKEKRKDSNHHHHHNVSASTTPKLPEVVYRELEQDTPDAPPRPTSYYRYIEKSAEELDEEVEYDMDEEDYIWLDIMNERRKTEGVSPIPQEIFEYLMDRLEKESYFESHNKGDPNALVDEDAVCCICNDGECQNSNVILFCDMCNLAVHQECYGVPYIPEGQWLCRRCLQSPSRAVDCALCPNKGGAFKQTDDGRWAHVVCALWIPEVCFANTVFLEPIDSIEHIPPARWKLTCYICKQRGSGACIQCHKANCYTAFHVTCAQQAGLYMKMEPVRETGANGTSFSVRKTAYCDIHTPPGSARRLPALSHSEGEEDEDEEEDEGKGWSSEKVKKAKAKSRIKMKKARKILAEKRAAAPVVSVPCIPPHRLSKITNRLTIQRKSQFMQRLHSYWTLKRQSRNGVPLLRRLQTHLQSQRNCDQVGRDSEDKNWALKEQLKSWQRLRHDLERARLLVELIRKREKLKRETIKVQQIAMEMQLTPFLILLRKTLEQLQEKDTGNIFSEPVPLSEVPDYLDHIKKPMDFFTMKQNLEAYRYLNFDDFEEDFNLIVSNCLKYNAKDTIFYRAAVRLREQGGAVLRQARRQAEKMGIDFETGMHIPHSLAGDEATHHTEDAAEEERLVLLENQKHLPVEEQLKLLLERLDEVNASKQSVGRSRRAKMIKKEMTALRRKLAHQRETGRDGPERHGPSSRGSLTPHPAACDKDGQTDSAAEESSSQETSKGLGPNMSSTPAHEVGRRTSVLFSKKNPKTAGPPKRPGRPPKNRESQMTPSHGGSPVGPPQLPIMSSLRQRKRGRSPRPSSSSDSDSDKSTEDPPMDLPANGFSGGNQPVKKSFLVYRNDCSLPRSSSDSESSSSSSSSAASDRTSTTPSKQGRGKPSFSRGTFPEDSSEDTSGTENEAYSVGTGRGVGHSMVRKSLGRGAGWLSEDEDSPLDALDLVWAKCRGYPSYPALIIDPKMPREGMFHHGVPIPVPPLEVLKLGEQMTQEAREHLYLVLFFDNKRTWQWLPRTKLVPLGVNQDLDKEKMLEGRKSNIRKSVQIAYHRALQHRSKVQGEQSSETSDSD
In words: Binding affinity to human BRPF1B assessed as change in melting temperature at 10 uM by differential scanning fluorimetry. In general terms: In DSF a fluorescence change marks the thermal transition of the protein.

Experiment [1] has as its target T2, Bromodomain-containing protein 9 (Homo sapiens) (UniProt Q9H8M2).
T2 sequence (whole entry): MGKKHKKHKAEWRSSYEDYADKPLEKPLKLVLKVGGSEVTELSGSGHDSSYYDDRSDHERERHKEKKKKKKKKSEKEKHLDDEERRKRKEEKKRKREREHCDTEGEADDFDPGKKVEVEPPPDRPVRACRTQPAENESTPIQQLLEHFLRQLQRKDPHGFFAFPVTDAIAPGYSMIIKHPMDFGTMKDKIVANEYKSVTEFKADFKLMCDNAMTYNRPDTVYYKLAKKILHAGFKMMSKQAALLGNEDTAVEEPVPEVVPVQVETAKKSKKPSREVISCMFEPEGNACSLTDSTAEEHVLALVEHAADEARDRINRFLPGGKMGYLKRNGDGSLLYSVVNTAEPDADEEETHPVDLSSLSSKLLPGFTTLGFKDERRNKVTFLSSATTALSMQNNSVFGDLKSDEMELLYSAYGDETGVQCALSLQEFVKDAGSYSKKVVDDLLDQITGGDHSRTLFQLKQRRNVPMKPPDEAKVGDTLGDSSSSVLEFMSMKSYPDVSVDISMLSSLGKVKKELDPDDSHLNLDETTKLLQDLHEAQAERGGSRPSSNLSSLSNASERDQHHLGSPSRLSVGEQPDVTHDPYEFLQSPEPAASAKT
Description: Binding affinity to human BRD9 assessed as change in melting temperature at 10 uM by differential scanning fluorimetry.

The target of experiment [2] is T3, Bromodomain-containing protein 4 (Homo sapiens, UniProt O60885). Description: Binding affinity to human BRD4 assessed as change in melting temperature at 10 uM by differential scanning fluorimetry.
Experiment [3] has as its target Bromodomain adjacent to zinc finger domain protein 2B (Homo sapiens, UniProt Q9UIF8). Description: Inhibition of human BAZ2B by alpha screen assay. For orientation: Bead proximity is the source of the signal in Alpha formats.
Experiment [4] has as its target T4, Bromodomain-containing protein 9 (Homo sapiens, UniProt Q9H8M2).
T4 sequence (Q9H8M2 whole entry): T2 sequence (whole entry)
Description: Inhibition of human BRD9 by alpha screen assay.

The target in experiment [5] is T3, Bromodomain-containing protein 4. Description: Inhibition of human BRD4 by alpha screen assay.
For a further experiment, the target named is T5, Peregrin (Homo sapiens, UniProt P55201).
T5 sequence (P55201 whole entry): T1 sequence (whole entry)
Description: Inhibition of human BRPF1B by alpha screen assay.

Bromodomain adjacent to zinc finger domain protein 2B, sequence (Q9UIF8 whole entry, the tested form may be a part): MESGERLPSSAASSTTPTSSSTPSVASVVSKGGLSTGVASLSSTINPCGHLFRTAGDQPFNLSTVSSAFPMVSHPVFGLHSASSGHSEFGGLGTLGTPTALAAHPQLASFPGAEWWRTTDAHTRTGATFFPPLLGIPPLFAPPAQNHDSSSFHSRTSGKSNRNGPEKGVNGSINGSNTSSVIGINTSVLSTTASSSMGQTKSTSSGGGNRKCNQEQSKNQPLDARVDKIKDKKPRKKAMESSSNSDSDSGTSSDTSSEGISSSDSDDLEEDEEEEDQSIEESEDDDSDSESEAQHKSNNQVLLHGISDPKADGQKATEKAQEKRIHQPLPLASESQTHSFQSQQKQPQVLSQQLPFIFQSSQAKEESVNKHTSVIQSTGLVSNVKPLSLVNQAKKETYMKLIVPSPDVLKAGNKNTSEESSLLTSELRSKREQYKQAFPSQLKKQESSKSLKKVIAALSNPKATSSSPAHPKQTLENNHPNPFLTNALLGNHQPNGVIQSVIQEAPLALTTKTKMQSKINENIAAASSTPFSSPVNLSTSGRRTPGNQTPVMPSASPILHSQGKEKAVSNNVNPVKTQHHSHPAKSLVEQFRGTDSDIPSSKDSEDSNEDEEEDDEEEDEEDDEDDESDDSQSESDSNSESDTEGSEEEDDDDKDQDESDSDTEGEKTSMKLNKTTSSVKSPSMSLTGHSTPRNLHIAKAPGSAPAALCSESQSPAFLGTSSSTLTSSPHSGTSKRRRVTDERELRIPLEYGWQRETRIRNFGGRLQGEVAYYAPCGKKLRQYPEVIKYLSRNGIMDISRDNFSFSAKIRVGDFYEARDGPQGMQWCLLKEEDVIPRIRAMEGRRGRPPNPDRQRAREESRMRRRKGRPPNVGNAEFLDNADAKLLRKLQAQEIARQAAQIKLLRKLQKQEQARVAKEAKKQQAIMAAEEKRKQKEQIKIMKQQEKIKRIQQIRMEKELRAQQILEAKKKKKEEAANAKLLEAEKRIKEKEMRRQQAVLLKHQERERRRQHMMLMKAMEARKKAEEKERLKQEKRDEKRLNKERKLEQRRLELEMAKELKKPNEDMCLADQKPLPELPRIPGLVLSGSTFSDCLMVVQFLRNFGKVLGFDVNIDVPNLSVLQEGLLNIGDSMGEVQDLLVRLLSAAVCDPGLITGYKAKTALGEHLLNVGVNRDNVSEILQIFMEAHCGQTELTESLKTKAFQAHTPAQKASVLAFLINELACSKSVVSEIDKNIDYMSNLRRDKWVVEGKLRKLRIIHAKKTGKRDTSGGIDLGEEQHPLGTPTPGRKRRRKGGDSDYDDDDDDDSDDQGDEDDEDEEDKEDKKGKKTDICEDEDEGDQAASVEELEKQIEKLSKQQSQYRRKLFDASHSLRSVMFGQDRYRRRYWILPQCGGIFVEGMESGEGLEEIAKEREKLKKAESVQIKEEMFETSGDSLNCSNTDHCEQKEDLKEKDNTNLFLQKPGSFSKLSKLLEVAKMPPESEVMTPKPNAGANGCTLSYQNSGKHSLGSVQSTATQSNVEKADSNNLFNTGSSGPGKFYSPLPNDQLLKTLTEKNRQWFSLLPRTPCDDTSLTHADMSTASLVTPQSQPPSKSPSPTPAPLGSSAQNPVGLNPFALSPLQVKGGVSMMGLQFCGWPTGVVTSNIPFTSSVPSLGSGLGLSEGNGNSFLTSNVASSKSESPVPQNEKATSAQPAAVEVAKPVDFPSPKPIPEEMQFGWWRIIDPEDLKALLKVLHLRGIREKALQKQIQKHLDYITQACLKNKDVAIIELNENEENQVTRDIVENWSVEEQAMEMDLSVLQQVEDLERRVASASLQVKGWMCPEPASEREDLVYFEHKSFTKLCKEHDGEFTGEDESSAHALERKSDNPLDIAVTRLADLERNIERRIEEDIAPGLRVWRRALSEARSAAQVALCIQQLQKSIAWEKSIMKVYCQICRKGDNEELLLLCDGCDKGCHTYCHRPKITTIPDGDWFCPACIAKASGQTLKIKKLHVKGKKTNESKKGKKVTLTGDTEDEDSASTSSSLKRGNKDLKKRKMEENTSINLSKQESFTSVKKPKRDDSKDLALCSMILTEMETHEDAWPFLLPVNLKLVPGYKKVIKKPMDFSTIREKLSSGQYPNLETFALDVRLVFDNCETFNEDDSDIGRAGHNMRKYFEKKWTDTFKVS

For `COC(=O)c1ccnc(-c2cc(C(C)=O)n3ccc(N4CCOCC4)cc23)c1`, the figures for the ΔTm (on Peregrin (Homo sapiens); in experiment [1]; in experiment [2]) were 0.04 °C, 0.35 °C and 0.075 °C, respectively.

With `CCCCC(=O)c1cc(-c2cccc3nccn23)c2cc(N3CCN(C)CC3)ccn12`, the ΔTm (usually the change in melting temperature against a reference sample) on Peregrin (Homo sapiens) is 0.5 °C; in experiment [1] it was 0.27 °C; in experiment [2], -0.78 °C.

Take `CCCOc1ccn2c(C(C)=O)cc(-c3ccccn3)c2c1`: the ΔTm was 0.32 °C at Peregrin (Homo sapiens), 1.1 °C in experiment [1] and -0.35 °C in experiment [2]. The IC50 in experiment [3] and in experiment [4] was 2.51 µM throughout.

For `CC(=O)c1cc(-c2cccc3nccn23)c2cc(N3CCN(C)CC3)ccn12`, the IC50 (in experiment [5]; at Peregrin) was not above 1 µM each time. For the same molecule, the values for the ΔTm (at Peregrin (Homo sapiens); in experiment [1]; in experiment [2]) were 3.5 °C, 7.5 °C and 4.1 °C, respectively.

For the molecule `CC(=O)c1cc(-c2ncc(C)cc2F)c2cc(N3CCOCC3)ccn12`, the figures for the ΔTm (on Peregrin (Homo sapiens); in experiment [1]; in experiment [2]) were 0.48 °C, -0.28 °C and -0.42 °C, respectively.

Regarding `COc1cccc(-c2cc(C(C)=O)n3ccc(N4CCOCC4)cc23)n1`, the values for the ΔTm (on Peregrin (Homo sapiens); in experiment [1]; in experiment [2]) were 0.53 °C, 1.3 °C and 0.82 °C, respectively.

Regarding `CCC(=O)c1cc(-c2cccc3nccn23)c2cc(N3CCOCC3)ccn12`, the values for the ΔTm (at Peregrin (Homo sapiens); in experiment [1]; in experiment [2]) were 0.2 °C, 3 °C and 0.98 °C, respectively.

For `O=C(c1cc(-c2cccc3nccn23)c2cc(N3CCOCC3)ccn12)C(F)(F)F`, the ΔTm was 0.2 °C at Peregrin (Homo sapiens), 0.26 °C in experiment [1] and -0.4 °C in experiment [2].

As for `CC(=O)c1cc(-c2cc(C(=O)O)ccn2)c2cc(N3CCOCC3)ccn12`, the values for the ΔTm (on Peregrin (Homo sapiens); in experiment [1]; in experiment [2]) were 0.01 °C, -0.06 °C and -0.24 °C, respectively.

For the molecule `CC(=O)c1cc(-c2cccc(Cl)n2)c2cc(N3CCOCC3)ccn12`, the results for the ΔTm (on Peregrin (Homo sapiens); in experiment [1]; in experiment [2]) were 0.34 °C, 0.81 °C and 0.28 °C, respectively.

As to `CC(=O)c1cc(-c2nc3ccccc3s2)c2cc(N3CCOCC3)ccn12`, the ΔTm is 0.04 °C at Peregrin (Homo sapiens), -0.3 °C in experiment [1] and 0.55 °C in experiment [2].

In the case of `CC(=O)c1cc(-c2ncccn2)c2cc(N3CCOCC3)ccn12`, the ΔTm on Peregrin (Homo sapiens) worked out at 0.29 °C; in experiment [1], 0.035 °C; in experiment [2], 0.43 °C.

Consider `CC(=O)c1cc(-c2ccc(Cl)cn2)c2cc(N3CCOCC3)ccn12`, for which the ΔTm is 0.22 °C on Peregrin (Homo sapiens), -0.23 °C in experiment [1] and -0.39 °C in experiment [2].

For the molecule `CN1CCN(c2ccn3c(C(=O)C4CC4)cc(-c4cccc5nccn45)c3c2)CC1`, the ΔTm at Peregrin (Homo sapiens) was 0.085 °C; in experiment [1], 0.76 °C; in experiment [2], -0.65 °C.

Regarding `CCCOc1ccn2c(C(C)=O)cc(-c3cccc(Cl)n3)c2c1`, the figures for the ΔTm (on Peregrin (Homo sapiens); in experiment [1]; in experiment [2]) were 0.18 °C, 0.085 °C and -0.6 °C, respectively.

For `CC(=O)c1cc(-c2ccc(C(F)(F)F)cn2)c2cc(N3CCOCC3)ccn12`, the ΔTm is 2.5 °C on Peregrin (Homo sapiens), -1.1 °C in experiment [1] and -4 °C in experiment [2].

As to `CC(=O)c1cc(-c2ccccn2)c2cc(N3CCOCC3)ccn12`, the results for the ΔTm (on Peregrin (Homo sapiens); in experiment [1]; in experiment [2]) were 1.3 °C, 5.7 °C and 1.9 °C, respectively. Besides, the figures for the IC50 in experiment [3] and in experiment [4] were 3.16 µM and 0.501 µM, respectively.

Take `CC(C)C(=O)c1cc(-c2cccc3nccn23)c2cc(N3CCN(C)CC3)ccn12`: the ΔTm on Peregrin (Homo sapiens) turned out to be 0.71 °C; in experiment [1] it was 1 °C; in experiment [2], 0.19 °C.

Consider `CC(=O)c1cc(-c2cccc3nccn23)c2cc(N3CCNCC3)ccn12`, for which the ΔTm was determined as 2.3 °C on Peregrin (Homo sapiens), 5.1 °C in experiment [1] and 2.6 °C in experiment [2].

As to `CC(=O)c1cc(-c2cccc(C)n2)c2cc(N3CCOCC3)ccn12`, the ΔTm on Peregrin (Homo sapiens) stood at 0.65 °C; in experiment [1], 4.2 °C; in experiment [2], 1.2 °C. Also, the values for the IC50 in experiment [3] and in experiment [4] were 15.8 µM and 0.501 µM, respectively.

As to `CC(=O)c1cc(-c2ncccc2F)c2cc(N3CCOCC3)ccn12`, the ΔTm on Peregrin (Homo sapiens) came out at 0.71 °C; in experiment [1] it was 1.3 °C; in experiment [2] it was 0.41 °C.

Regarding `CC(=O)c1cc(-c2ccccn2)c2cc(N3CCNCC3)ccn12`, the results for the ΔTm (at Peregrin (Homo sapiens); in experiment [1]; in experiment [2]) were 1.7 °C, 5.7 °C and 4 °C, respectively.

With `CCCOc1ccn2c(C(C)=O)cc(-c3cc(C(=O)OC)ccn3)c2c1`, the ΔTm at Peregrin (Homo sapiens) is 0.09 °C; in experiment [1], -0.03 °C; in experiment [2], -0.24 °C.

As for `CCC(=O)c1cc(-c2cccc3nccn23)c2cc(N3CCN(C)CC3)ccn12`, the results for the thermal shift (ΔTm) (on Peregrin (Homo sapiens); in experiment [1]; in experiment [2]) were 0.15 °C, 1.2 °C and 0.51 °C, respectively.

Consider `CN1CCN(c2ccn3c(C(=O)C(F)(F)F)cc(-c4cccc5nccn45)c3c2)CC1`, for which the values for the ΔTm (at Peregrin (Homo sapiens); in experiment [1]; in experiment [2]) were 0.26 °C, 0.3 °C and -0.7 °C, respectively.
